In US11174242B2, “Heteroaryl compounds and their use” (Minoryx Therapeutics S.L., priority 2016, dated 2021):

target: T1, β-glucocerebrosidase, p.L444P mutation (GM08760A fibroblasts) (Homo sapiens, UniProt P04062, L483P); experiment: Enhancement of β-glucocerebrosidase activity measured in Gaucher disease fibroblasts (L444P); format: cell-based; details: commercially available compounds; increase in enzyme activity vs non-treated cells; GBA fibroblasts bearing L444P; 6-50 μM; 4 days
T1 construct: host or cells: human Gaucher patient fibroblasts GM08760A, homozygous L444P
T1 sequence (P04062 40-536 L483P): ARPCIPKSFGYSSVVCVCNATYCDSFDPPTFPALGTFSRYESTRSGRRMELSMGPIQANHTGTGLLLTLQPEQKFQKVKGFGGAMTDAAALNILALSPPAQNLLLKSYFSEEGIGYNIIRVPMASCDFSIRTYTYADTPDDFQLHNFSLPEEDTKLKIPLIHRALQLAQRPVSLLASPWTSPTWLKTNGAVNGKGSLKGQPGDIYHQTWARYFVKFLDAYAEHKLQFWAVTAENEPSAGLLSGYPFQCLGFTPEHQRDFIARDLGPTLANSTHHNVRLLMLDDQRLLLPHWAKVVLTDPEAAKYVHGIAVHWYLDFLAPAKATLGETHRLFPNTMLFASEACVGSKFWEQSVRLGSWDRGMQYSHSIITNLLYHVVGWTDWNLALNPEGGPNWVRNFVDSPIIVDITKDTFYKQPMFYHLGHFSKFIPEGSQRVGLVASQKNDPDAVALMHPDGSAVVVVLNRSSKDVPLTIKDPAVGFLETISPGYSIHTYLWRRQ
Procedure: Enhancement of β-Glucocerebrosidase Activity Measured in Gaucher Disease Fibroblasts Materials
Human fibroblasts from a patient with Gaucher disease homozygous for p.L444P mutation (GM08760A) were purchased from Coriell Institute for Medical Research (Camden, N.J., USA).
Fibroblasts were seeded at 5×10^3 cells per well in 96-well cell culture plates (Corning, N.Y., USA) in Dulbecco's Modified Eagle's Media (DMEM) supplemented with 10% of fetal bovine serum (FBS), 1% penicillin/streptomycin (P/S) (Thermo Fisher Scientific, Waltham, Mass., USA) and grown at 37° C., 5% CO2 overnight for cell attachment. Subsequently, cells were incubated in the absence or presence of the compounds at the desired concentration for 4 days. After incubation, cells were washed twice with phosphate-buffered saline (PBS) and enzyme activity assay was performed.
β-glucocerebrosidase activity in intact cultured cells was measured by using 4-methylumbelliferyl-β-D-glucopyranoside substrate (Apollo Scientific, UK). Briefly, cells were incubated with 4-MU-β-D-glucopyranoside in 0.1 M acetate buffer pH=4 at 37° C. for 1 hour. […] The liberated 4-MU was measured on a GloMax Discover plate reader (Promega, Madison, Wis., USA) with and excitation at 340 nm and emission at 460 nm. Enzyme activities were expressed in treated cells as X-fold increase in comparison with non-treated cells (X=1 represents no enhancement).
The capacity of the compounds of the disclosure to produce an increase in enzyme activity in GBA fibroblasts bearing L444P at concentrations between 6 and 50 μM is denoted as follows:
The following compounds listed in Table 2 were purchased (from Enamine, Princeton, Asinex, Vistas-M, and OSSK_541352) and tested in the assay as described above.

| Compound | Activity L444P |
| --- | --- |
| Cc1ccc(Nc2nc(N)nc(CN(C)CCOc3ccc(Cl)cc3)n2)cc1 [6-(((2-(4-chlorophenoxy)ethyl)(methyl)amino)methyl)-N2-(p-tolyl)-1,3,5-triazine-2,4-diamine] | C (Increase in comparison with non-treated of 1.2-1.7 fold is shown as C) |
| Nc1nc(CN(Cc2ccc(F)cc2)C2CC2)nc(Nc2ccc(F)cc2)n1 [6-((cyclopropyl(4-fluorobenzyl)amino)methyl)-N2-(4-fluorophenyl)-1,3,5-triazine-2,4-diamine] | C (Increase in comparison with non-treated of 1.2-1.7 fold is shown as C) |
| Cc1ccc(Nc2nc(N)nc(CN(C)Cc3ccco3)n2)cc1 [6-(((furan-2-ylmethyl)(methyl)amino)methyl)-N2-(p-tolyl)-1,3,5-triazine-2,4-diamine] | C (Increase in comparison with non-treated of 1.2-1.7 fold is shown as C) |
| Nc1nc(CN2CCCC2c2ccccc2)nc(Nc2ccc(F)cc2)n1 (stereo not shown) [N2-(4-fluorophenyl)-6-((2-phenylpyrrolidin-1-yl)methyl)-1,3,5-triazine-2,4-diamine] | B (Increase in comparison with non-treated of >1.7-2.0 fold is shown as B) |
| Cc1ccc(Nc2nc(N)nc(CN3CCN(c4ccccc4)CC3)n2)cc1 [6-((4-phenylpiperazin-1-yl)methyl)-N2-(p-tolyl)-1,3,5-triazine-2,4-diamine] | C (Increase in comparison with non-treated of 1.2-1.7 fold is shown as C) |
| Cc1ccc(CN(C)Cc2nc(N)nc(Nc3ccccc3C)n2)cc1 [6-((methyl(4-methylbenzyl)amino)methyl)-N2-(o-tolyl)-1,3,5-triazine-2,4-diamine] | C (Increase in comparison with non-treated of 1.2-1.7 fold is shown as C) |
| COc1cccc(N2CCN(Cc3nc(N)nc(Nc4ccc(C)cc4)n3)CC2)c1 [6-((4-(3-methoxyphenyl)piperazin-1-yl)methyl)-N2-(p-tolyl)-1,3,5-triazine-2,4-diamine] | C (Increase in comparison with non-treated of 1.2-1.7 fold is shown as C) |
| CN(Cc1cccc(F)c1)Cc1nc(N)nc(Nc2ccc(Cl)cc2)n1 [N2-(4-chlorophenyl)-6-(((3-fluorobenzyl)(methyl)amino)methyl)-1,3,5-triazine-2,4-diamine] | C (Increase in comparison with non-treated of 1.2-1.7 fold is shown as C) |

same assay, conditions: increase in enzyme activity vs non-treated cells; GBA fibroblasts bearing L444P; concentrations between 6 and 50 μM; 4 days incubation

| Compound | Activity L444P |
| --- | --- |
| COc1ccccc1Nc1cc(N)nc(CN(C)Cc2ccccc2)n1 [Example 63, 2-((Benzyl(methyl)amino)methyl)-N^4-(2-methoxyphenyl)pyrimidine-4,6-diamine] | C (Increase in comparison with non-treated of 1.2-1.7 fold is shown as C) |
| CN(Cc1ccccc1)Cc1cc(Nc2cccc(C#N)c2)nc(N)n1 [Example 29, 3-(2-Amino-6-((benzyl(methyl)amino)methyl)pyrimidin-4-ylamino)benzonitrile] | B (Increase in comparison with non-treated of >1.7-2.0 fold is shown as B) |
| COCCN(Cc1ccccc1)Cc1cc(Nc2cccc(OC)c2)nc(N)n1 [Example 49, 6-((Benzyl(2-methoxyethyl)amino)methyl)-N^4-(3-methoxyphenyl)pyrimidine-2,4-diamine] | C (Increase in comparison with non-treated of 1.2-1.7 fold is shown as C) |
| COc1cccc(Nc2cc(CN(C)Cc3ccccc3)nc(N)n2)c1 [Example 17] | B (Increase in comparison with non-treated of >1.7-2.0 fold is shown as B) |
| COc1ccccc1Nc1nc(N)cc(CN2CCc3ccccc3C2)n1 [Example 71, (6-((3,4-Dihydroisoquinolin-2(1H)-yl)methyl)-N-(2-methoxyphenyl)pyrimidine-2,4-diamine)] | C (Increase in comparison with non-treated of 1.2-1.7 fold is shown as C) |
| Cc1ccc(Nc2cc(CN(C)Cc3cccc(C#N)c3)nc(N)n2)cc1 [Example 55, 3-((((2-Amino-6-(p-tolylamino)pyrimidin-4-yl)methyl)(methyl)amino)methyl)benzonitrile] | B (Increase in comparison with non-treated of >1.7-2.0 fold is shown as B) |
| Cc1ccc(CN(C)Cc2cc(Nc3ccc(C)cc3)nc(N)n2)cc1 [Example 34, 6-((Methyl(4-methylbenzyl)amino)methyl)-N^4-p-tolylpyrimidine-2,4-diamine] | B (Increase in comparison with non-treated of >1.7-2.0 fold is shown as B) |
| COc1cccc(CN(C)Cc2cc(Nc3ccc(C)cc3)nc(N)n2)c1 [Example 53, 6-(((3-Methoxybenzyl)(methyl)amino)methyl)-N^4-p-tolylpyrimidine-2,4-diamine] | C (Increase in comparison with non-treated of 1.2-1.7 fold is shown as C) |
| Cc1ccc(Nc2nc(N)cc(CN(C)Cc3ccccc3)n2)cc1 [Example 23, 6-((benzyl(methyl)amino)methyl)-N^2-p-tolylpyrimidine-2,4-diamine] | B (Increase in comparison with non-treated of >1.7-2.0 fold is shown as B) |
| Cc1ccc(Nc2cc(CN(C)Cc3ccc(C#N)cc3)nc(N)n2)cc1 [Example 57, 4-((((2-Amino-6-(p-tolylamino)pyrimidin-4-yl)methyl)(methyl)amino)methyl)benzonitrile] | C (Increase in comparison with non-treated of 1.2-1.7 fold is shown as C) |
| CN(Cc1ccccc1)Cc1nc(N)nc(Nc2ccc(C#N)cc2)n1 [Example 11, 4-(4-Amino-6-((benzyl(methyl)amino)methyl)-1,3,5-triazin-2-ylamino)benzonitrile] | C (Increase in comparison with non-treated of 1.2-1.7 fold is shown as C) |
| COc1cccc(Nc2cc(CN(C)Cc3cccc(C)c3)nc(N)n2)c1 [Example 38] | B (Increase in comparison with non-treated of >1.7-2.0 fold is shown as B) |
| COc1ccccc1Nc1cc(CN(C)Cc2ccccc2)nc(N)n1 [Example 15, 6-((benzyl(methyl)amino)methyl)-N^4-(2-methoxyphenyl)pyrimidine-2,4-diamine] | B (Increase in comparison with non-treated of >1.7-2.0 fold is shown as B) |
| CN(Cc1ccccc1)Cc1cc(Nc2ccc(Cl)cc2)nc(N)n1 [Example 21, 6-((benzyl(methyl)amino)methyl)-N^4-(4-chlorophenyl)pyrimidine-2,4-diamine] | B (Increase in comparison with non-treated of >1.7-2.0 fold is shown as B) |
| Cc1ccc(Nc2cc(CN3CCc4ccccc4C3)nc(N)n2)cc1 [Example 35, 6-((3,4-Dihydroisoquinolin-2(1H)-yl)methyl)-N^4-p-tolylpyrimidine-2,4-diamine] | B (Increase in comparison with non-treated of >1.7-2.0 fold is shown as B) |
| Cc1ccc(Nc2nc(N)nc(CNC3CCc4ccccc4C3)n2)cc1 (stereo not shown) [Example 27, 6-(((1,2,3,4-Tetrahydronaphthalen-2-yl)amino)methyl)-N-(p-tolyl)-1,3,5-triazine-2,4-diamine] | C (Increase in comparison with non-treated of 1.2-1.7 fold is shown as C) |
| Cc1ccc(Nc2cc(CN(C)Cc3cccnc3)nc(N)n2)cc1 [Example 61, 6-((Methyl(pyridin-3-ylmethyl)amino)methyl)-N^4-p-tolylpyrimidine-2,4-diamine] | C (Increase in comparison with non-treated of 1.2-1.7 fold is shown as C) |
| Cc1ccc(Nc2cc(CN(C)Cc3ccncc3)nc(N)n2)cc1 [Example 60, 6-((Methyl(pyridin-4-ylmethyl)amino)methyl)-N^4-p-tolylpyrimidine-2,4-diamine] | C (Increase in comparison with non-treated of 1.2-1.7 fold is shown as C) |
| Cc1cccc(Nc2cc(CN(C)Cc3cccc(C#N)c3)nc(N)n2)c1 [Example 39, 3-((((2-Amino-6-(m-tolylamino)pyrimidin-4-yl)methyl)(methyl)amino)methyl) benzonitrile] | C (Increase in comparison with non-treated of 1.2-1.7 fold is shown as C) |
| COc1cccc(Nc2cc(CN(C)c3cccc(OC)c3)nc(N)n2)c1 [Example 51] | C (Increase in comparison with non-treated of 1.2-1.7 fold is shown as C) |
